Laboratory results from patent publication US9695144B2, “Dibenzazepine derivatives and use thereof” (Purdue Pharma L.P., priority 2013, dated 2017).
Like-named read-outs stand apart in the source and are kept apart here.

Assays:
Nav1.3 = Nav1.3 (Homo sapiens, UniProt Q9NY46); conditions: read-out: TTX IC50; cited from earlier work
Nav1.8 = Nav1.8 (Homo sapiens, UniProt Q9Y5Y9); conditions: read-out: TTX IC50; cited from earlier work
Nav1.9 = Nav1.9 (Homo sapiens, UniProt Q9UI33); conditions: read-out: TTX IC50; cited from earlier work
Nav1.2 = Nav1.2 (Homo sapiens, UniProt Q99250); conditions: read-out: TTX IC50; cited from earlier work
Nav1.6 = Nav1.6 (Homo sapiens, UniProt Q9UQD0); conditions: read-out: TTX IC50; cited from earlier work
Nav1.1 = Nav1.1 (Homo sapiens, UniProt P35498); conditions: read-out: TTX IC50; cited from earlier work
human Nav1.7 = human Nav1.7 (Homo sapiens, UniProt Q15858); assay: FLIPR or FLIPR TETRA sodium dye assay for sodium channel blocking activity; assay type: cell-based
human Nav1.7, sequence (Q15858 1-1977 isoform Q15858-3): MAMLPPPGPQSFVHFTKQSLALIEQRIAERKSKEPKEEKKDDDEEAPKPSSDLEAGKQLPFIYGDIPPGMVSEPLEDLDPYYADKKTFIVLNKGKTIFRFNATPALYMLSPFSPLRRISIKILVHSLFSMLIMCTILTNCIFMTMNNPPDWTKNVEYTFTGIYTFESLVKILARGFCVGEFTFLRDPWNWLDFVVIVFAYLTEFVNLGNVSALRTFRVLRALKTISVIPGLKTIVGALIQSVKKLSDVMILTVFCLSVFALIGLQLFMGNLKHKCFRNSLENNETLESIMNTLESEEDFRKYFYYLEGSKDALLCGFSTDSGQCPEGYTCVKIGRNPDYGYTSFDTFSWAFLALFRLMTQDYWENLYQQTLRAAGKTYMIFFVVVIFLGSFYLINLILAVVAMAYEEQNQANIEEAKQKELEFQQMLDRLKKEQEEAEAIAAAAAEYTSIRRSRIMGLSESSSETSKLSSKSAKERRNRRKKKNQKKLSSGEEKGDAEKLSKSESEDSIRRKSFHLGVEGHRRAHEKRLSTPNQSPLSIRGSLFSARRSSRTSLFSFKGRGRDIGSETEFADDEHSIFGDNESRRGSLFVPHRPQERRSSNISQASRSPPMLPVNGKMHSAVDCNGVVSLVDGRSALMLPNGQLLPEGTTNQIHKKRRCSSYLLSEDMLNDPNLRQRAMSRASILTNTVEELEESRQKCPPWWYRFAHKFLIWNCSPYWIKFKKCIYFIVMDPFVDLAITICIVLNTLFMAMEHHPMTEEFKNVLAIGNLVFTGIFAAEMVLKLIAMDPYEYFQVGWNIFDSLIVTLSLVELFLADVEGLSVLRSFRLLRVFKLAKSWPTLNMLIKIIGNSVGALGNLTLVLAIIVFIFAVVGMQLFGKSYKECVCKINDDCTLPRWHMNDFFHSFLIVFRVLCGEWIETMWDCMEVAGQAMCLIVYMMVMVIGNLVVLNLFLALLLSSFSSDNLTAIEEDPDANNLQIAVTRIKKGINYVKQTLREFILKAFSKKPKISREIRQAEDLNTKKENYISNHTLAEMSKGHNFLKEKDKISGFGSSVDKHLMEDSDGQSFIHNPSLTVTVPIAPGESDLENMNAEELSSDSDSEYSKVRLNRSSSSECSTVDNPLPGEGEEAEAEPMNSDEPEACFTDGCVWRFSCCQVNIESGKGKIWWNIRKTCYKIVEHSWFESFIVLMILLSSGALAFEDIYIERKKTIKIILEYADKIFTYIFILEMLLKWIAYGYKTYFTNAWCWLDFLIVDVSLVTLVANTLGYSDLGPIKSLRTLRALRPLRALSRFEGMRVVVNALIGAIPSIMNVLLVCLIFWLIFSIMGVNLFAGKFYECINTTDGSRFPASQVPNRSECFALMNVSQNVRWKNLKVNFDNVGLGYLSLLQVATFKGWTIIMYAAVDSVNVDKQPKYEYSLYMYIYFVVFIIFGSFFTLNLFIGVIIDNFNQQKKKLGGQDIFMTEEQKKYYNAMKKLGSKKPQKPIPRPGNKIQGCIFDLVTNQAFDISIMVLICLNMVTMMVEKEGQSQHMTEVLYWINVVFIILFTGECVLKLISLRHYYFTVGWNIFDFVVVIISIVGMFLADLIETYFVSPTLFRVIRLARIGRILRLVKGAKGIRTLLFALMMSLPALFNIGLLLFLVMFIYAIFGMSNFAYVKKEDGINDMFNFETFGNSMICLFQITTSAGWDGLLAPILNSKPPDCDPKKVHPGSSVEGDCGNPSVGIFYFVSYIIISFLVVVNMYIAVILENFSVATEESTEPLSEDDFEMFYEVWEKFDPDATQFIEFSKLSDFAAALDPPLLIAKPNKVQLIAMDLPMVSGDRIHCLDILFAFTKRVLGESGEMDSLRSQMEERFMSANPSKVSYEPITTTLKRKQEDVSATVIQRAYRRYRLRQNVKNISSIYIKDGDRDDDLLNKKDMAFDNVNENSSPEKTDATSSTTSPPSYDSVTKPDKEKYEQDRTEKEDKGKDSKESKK

hNav1.7 [1] = biological target: T1, hNav1.7 (Homo sapiens, UniProt Q15858); conditions: read-out: Nav1.7 Activity (μM) EP assay Ki; affinity for the inactivated state of the channel; hNav1.7 HEK-293 cells
T1 sequence (Q15858 1-1977 isoform Q15858-3): as above

hNav1.7 [2] = biological target: T1, hNav1.7; assay: cell-based
[3] = read-out: Nav1.7 Activity (μM) FLIPR assay IC50
[4] = recombinant HEK293 cells expressing human Nav1.7 alpha subunit, veratridine and scorpion venom as agonists, read-out: Nav1.7 Activity (μM) FLIPR assay IC50

Nav1.3, sequence (Q9NY46 whole entry, looked up): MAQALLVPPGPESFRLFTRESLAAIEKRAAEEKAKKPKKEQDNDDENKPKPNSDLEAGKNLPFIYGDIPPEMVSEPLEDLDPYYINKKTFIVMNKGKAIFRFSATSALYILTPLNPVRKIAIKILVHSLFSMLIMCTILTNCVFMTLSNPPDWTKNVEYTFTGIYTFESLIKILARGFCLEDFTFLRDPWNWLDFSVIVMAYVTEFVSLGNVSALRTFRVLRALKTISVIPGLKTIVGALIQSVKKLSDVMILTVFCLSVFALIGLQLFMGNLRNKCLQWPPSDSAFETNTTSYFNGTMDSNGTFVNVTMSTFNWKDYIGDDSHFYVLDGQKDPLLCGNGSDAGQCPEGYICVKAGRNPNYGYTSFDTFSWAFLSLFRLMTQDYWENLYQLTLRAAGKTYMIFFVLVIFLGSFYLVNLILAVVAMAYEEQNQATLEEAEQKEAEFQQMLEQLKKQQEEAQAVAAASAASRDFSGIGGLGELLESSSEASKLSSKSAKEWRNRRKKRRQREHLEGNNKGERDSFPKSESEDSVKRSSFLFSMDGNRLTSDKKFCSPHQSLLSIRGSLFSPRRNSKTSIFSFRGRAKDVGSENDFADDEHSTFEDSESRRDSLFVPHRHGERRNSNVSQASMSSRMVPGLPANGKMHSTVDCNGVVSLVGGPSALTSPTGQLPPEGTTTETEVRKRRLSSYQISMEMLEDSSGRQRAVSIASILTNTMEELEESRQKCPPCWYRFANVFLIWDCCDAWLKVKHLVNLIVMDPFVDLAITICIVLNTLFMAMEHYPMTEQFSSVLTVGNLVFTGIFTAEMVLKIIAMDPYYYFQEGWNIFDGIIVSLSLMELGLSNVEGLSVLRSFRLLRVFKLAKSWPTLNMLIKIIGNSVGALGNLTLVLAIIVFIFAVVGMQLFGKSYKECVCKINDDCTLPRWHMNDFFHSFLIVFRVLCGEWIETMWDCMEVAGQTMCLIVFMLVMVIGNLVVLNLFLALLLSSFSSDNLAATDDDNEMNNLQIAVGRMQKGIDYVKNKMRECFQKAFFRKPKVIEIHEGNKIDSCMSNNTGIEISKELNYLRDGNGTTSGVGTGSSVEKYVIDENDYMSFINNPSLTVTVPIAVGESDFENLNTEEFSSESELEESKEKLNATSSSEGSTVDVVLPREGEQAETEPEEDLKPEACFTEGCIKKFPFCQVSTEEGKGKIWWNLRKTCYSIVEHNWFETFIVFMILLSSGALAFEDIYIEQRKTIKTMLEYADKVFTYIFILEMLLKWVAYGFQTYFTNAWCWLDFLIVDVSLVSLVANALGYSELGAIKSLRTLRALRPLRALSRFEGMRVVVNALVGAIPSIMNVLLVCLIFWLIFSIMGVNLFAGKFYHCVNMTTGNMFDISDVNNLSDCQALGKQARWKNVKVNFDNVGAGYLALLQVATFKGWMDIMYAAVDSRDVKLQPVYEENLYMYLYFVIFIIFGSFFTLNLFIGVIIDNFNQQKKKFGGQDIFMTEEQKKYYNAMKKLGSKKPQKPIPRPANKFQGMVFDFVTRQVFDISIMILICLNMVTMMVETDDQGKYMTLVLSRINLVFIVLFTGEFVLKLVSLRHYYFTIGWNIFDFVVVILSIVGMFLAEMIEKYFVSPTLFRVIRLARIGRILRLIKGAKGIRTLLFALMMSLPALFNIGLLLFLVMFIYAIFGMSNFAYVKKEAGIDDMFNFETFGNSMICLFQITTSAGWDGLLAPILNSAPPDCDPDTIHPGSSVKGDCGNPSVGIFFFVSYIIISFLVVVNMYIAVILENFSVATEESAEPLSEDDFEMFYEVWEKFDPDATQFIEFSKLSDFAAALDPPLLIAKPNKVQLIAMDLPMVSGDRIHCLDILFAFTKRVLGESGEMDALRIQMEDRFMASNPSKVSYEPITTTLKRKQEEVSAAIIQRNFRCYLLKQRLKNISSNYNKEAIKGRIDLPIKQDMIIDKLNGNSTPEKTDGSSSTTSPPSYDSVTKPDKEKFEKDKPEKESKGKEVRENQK

For `NC1=N[C@H](O)[C@H]2[C@H]3O[C@]4(O)O[C@@H]([C@@H](O)[C@@]2(N1)[C@@H]4O)[C@]3(O)CO` [TTX, tetrodotoxin], which IC50 (Nav1.3) is on record?
The IC50 was 15 nM.

And the IC50 (Nav1.8)?
The IC50 was 50000 nM.

And the IC50 (Nav1.9)?
The IC50 was 1000 nM.

What about the IC50 (Nav1.2) of the same molecule?
Its IC50 is 10 nM.

And the IC50 (Nav1.6)?
Its IC50 is 6 nM.

What about the IC50 (Nav1.1) of the same molecule?
Its IC50 is 10 nM.

For `CCN1c2ccc(Cl)cc2CCc2cc(-c3cccc(C(N)=O)n3)ccc21` [Compound 41, 6-(8-chloro-5-ethyl-10,11-dihydro-5H-dibenzo[b,f]azepin-2-yl)picolinamide], which IC50 (human Nav1.7) is on record?
The IC50 was over 20 µM.

Which IC50 (human Nav1.7; [3]) does the source give for `CN1Cc2cc(-c3cccc([C@H](O)[C@@H](O)C(N)=O)n3)ccc2Oc2ccc(C(F)(F)F)cc21` [Compound 48, (2R,3S)-2,3-dihydroxy-3-(6-(10-methyl-8-(trifluoromethyl)-10,11-dihydrodibenzo[b,f][1,4]oxazepin-2-yl)pyridin-2-yl)propanamide] here?
Its IC50 is 1.05 ± 0.069 µM.

For `NC(=O)c1cccc(-c2ccc3c(c2)CCc2cc(Cl)ccc2N3)n1` [Compound 40, 6-(8-chloro-10,11-dihydro-5H-dibenzo[b,f]azepin-2-yl)picolinamide], which IC50 (human Nav1.7; [3]) is on record?
Its IC50 is 1.96 ± 0.036 µM.

What about the Ki (hNav1.7 [1]) of the same molecule?
The Ki was 0.648 ± 0.123 µM.

For `NC(=O)CN1Cc2cc(-c3cccc([C@H](O)CO)n3)ccc2Oc2ccc(C(F)(F)F)cc21` [Compound 49, (S)-2-(2-(6-(1,2-dihydroxyethyl)pyridin-2-yl)-8-(trifluoromethyl)dibenzo-[b,f][1,4]oxazepin-10(11H)-yl)acetamide], which Ki (hNav1.7 [2]) is on record?
The Ki was 1800 ± 794 nM.

For `CN1c2ccc(-c3cccc([C@H](O)CO)n3)cc2CCc2cc(C(F)(F)F)ccc21` [Compound 46, (S)-1-(6-(5-methyl-8-(trifluoromethyl)-10,11-dihydro-5H-dibenzo[b,f]azepin-2-yl)pyridin-2-yl)ethane-1,2-diol], which IC50 (human Nav1.7; [3]) is on record?
Its IC50 is 1.08 ± 0.106 µM.

What about the Ki (hNav1.7 [1]) of the same molecule?
The Ki was 1.03 ± 0.227 µM.

Which IC50 (human Nav1.7; [3]) does the source give for `CN1Cc2cc(C(F)(F)F)ccc2Oc2ccc(-c3cccc([C@H](O)CO)n3)cc21` [Compound 45, (S)-1-(6-(10-methyl-2-(trifluoromethyl)-10,11-dihydrodibenzo[b,f][1,4]oxazepin-8-yl)pyridin-2-yl)ethane-1,2-diol] here?
The IC50 was 1.03 ± 0.067 µM.

Which results are given for `CC(=O)N1c2ccc(Cl)cc2CCc2cc(-c3cccc(C(N)=O)n3)ccc21` [Compound 42, 6-(5-acetyl-8-chloro-10,11-dihydro-5H-dibenzo[b,f]azepin-2-yl)picolinamide]?
IC50 (human Nav1.7; [3]): 7.62 ± 0.797 µM; Ki (hNav1.7 [1]): 3.03 ± 1.26 µM

With `CN1Cc2cc(-c3cccc([C@H](O)CO)n3)ccc2Oc2ccc(C(F)(F)F)cc21` [Compound 44, (S)-1-(6-(10-methyl-8-(trifluoromethyl)-10,11-dihydrodibenzo[b,f][1,4]oxazepin-2-yl)pyridin-2-yl)ethane-1,2-diol] as the molecule, how does the IC50 (human Nav1.7; [4]) read?
Its IC50 is 0.373 ± 0.047 µM.

With `C[C@H](Nc1cc(C(N)=O)nc(-c2ccc3c(c2)CN(C)c2cc(C(F)(F)F)ccc2O3)n1)C(N)=O` [Compound 47, (S)-6-((1-amino-1-oxopropan-2-yl)amino)-2-(10-methyl-8-(trifluoromethyl)-10,11-dihydrodibenzo[b,f][1,4]oxazepin-2-yl)pyrimidine-4-carboxamide] as the molecule, how does the IC50 (human Nav1.7; [4]) read?
Its IC50 is 4.79 ± 0.628 µM.

Which IC50 (human Nav1.7; [3]) does the source give for `CN1c2ccc(Cl)cc2CCc2cc(-c3cccc(C(N)=O)n3)ccc21` [Compound 39, 6-(8-chloro-5-methyl-10,11-dihydro-5H-dibenzo[b,f]azepin-2-yl)picolinamide] here?
The IC50 was 0.842 ± 0.04 µM.

For `OC[C@@H](O)c1cccc(-c2ccc3c(c2)CNc2cc(C(F)(F)F)ccc2O3)n1` [Compound 43, (S)-1-(6-(8-(trifluoromethyl)-10,11-dihydrodibenzo[b,f][1,4]oxazepin-2-yl)pyridin-2-yl)ethane-1,2-diol], which IC50 (human Nav1.7; [3]) is on record?
The IC50 was 2.57 ± 0.059 µM.
